The results in this text go back to patent US11230525B2, “Organic sulfur compound, method for preparing same, and pharmaceutical composition for preventing or treating cancer or an inflammatory disease, containing same as active ingredient” (SOOKMYUNG WOMENS UNIVERSITY INDUSTRY-ACADEMIC COOPERATION …, priority 2016, dated 2022).

Molecules are shown by their SMILES.

Assay [1] concerns renal cancer cell line (ACHN). Briefly: Cancer proliferation inhibitory activity (SRB, GI50), ACHN. The settings on record: Homo sapiens, 48 hours. Type of assay: cell-based. The text has this: (§1) Particularly, the cancer proliferation inhibitory activity of the compounds of comparative examples (Ajoene and the compounds isosteric to Ajoene wherein R1 is allyl or benzyl) and the compounds of examples of the present invention (the compounds not isosteric to Ajoene wherein R^1 is phenyl) was investigated in human cancer cell lines (renal cancer cell line (ACHN), breast cancer cell line (MDA-MB-231), colorectal cancer cell line (HCT-15), prostate cancer cell line (PC-3), gastric cancer cell line (NUGC-3) and lung cancer cell line (NCl-H23)).
(§2) At this time, the cancer cell lines (renal cancer cell line (ACHN), breast cancer cell line (MDA-MB-231), colorectal cancer cell line (HCT-15), prostate cancer cell line (PC-3), gastric cancer cell line (NUGC-3) and lung cancer cell line (NCl-H23)) above were purchased from American Type Culture Collection (Manassas, Va., USA). Cells were cultured in RPMI 1640 supplemented with 10% fetal bovine serum, which were maintained 37° C. under 5% CO2 wet atmosphere. The cells were distributed in a 96-well plate, which was not treated (treated only with 0.1% DMSO) or treated with the compounds of examples of the present (0.1 μM to 10 μM). 48 hours later, the cells were fixed in 50% trichloroacetic acid, followed by staining with 1% acetic acid containing 0.4% sulphorodamine B dissolved therein. The non-conjugated dye was removed by washing with 1% acetic acid, and the protein conjugated dye was extracted with 10 mM Tris base (pH 10.5). Then, OD540 was measured with VersaMax microplate reader (Molecular devices, Sunnyvale, Calif., USA). GI50 was calculated by using GraphPad Prism software (GraphPad Software, Inc., San Diego, Calif., USA).
(§3) Based on the results obtained in experimental example 1-1 above, the derivatives wherein R^1 is phenyl were additionally synthesized. The cancer proliferation inhibitory activity of the derivatives was evaluated by the same manner as described in experimental example 1-1.

Assay [2] concerns prostate cancer cell line (PC-3). The assay is described as follows: Cancer proliferation inhibitory activity (SRB, GI50), PC-3. Format: cell-based. The note with it: Homo sapiens, 48 hours.
Description: as §1, §2, §3

Assay [3] has as its system lung cancer cell line (NCl-H23). The assay is described as follows: Cancer proliferation inhibitory activity (SRB, GI50), NCI-H23. Format: cell-based. The note with it: Homo sapiens, 48 hours.
Description: as §1, §2, §3

Assay [4] concerns colorectal cancer cell line (HCT-15). The assay is described as follows: Cancer proliferation inhibitory activity (SRB, GI50), HCT-15. The settings on record: Homo sapiens, 48 hours. Type of assay: cell-based.
Description: as §1, §2, §3

Assay [5] has as its system gastric cancer cell line (NUGC-3). The assay is described as follows: Cancer proliferation inhibitory activity (SRB, GI50), NUGC-3. The note with it: Homo sapiens, 48 hours. Type of assay: cell-based.
Description: as §1, §2, §3

Assay [6] has as its system breast cancer cell line (MDA-MB-231). Briefly: Cancer proliferation inhibitory activity (SRB, GI50), MDA-MB-231. Type of assay: cell-based. The note with it: Homo sapiens, 48 hours.
Description: as §1, §2, §3

Another assay concerns the target T1, HDAC 8 (Homo sapiens, UniProt Q9BY41).
T1 sequence (Q9BY41 1-377): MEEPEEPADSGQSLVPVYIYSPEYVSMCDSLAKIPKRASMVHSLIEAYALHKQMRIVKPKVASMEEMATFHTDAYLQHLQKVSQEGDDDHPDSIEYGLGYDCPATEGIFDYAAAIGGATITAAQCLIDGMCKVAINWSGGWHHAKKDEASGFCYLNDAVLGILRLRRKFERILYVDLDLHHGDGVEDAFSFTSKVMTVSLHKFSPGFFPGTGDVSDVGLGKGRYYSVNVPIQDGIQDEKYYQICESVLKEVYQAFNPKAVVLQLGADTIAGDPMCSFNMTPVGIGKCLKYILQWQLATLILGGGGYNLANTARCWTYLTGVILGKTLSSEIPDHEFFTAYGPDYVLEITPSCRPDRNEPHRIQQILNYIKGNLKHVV
Briefly: HDAC enzyme fluorescence assay, HDAC 8. Set-up: Inhibitory activity (%) HDAC 8: concentration or dose not given beside the values. Format: biochemical. The settings on record: (HDAC inhibitory activity of example compound/HDAC inhibitory activity of SAHA) × 100. As for the experimental part: Particularly, HDAC enzyme analysis was performed based on a uniform fluorescence emission assay. First, the compounds of examples of the present invention or comparative example 1 were diluted at different concentrations, which were treated to the analysis buffer containing 25 mM HEPES (pH 8.0), 137 mM NaCl, 1 mM MgCl2 and 2.7 mM KCL, followed by culture of the recombinant HDAC enzyme. 10 minutes later, Boc-Lys(acetyl)-AMC, the fluorescence inducing substrate, was added thereto, followed by further culture at 37° C. At this time, the concentration of the fluorescence inducing substrate and the culture time were adjusted according to the isotypes of the HDAC enzyme. The reaction was terminated by treating trypsin at room temperature for 20 minutes. The fluorescence intensity was measured using a fluorescence analyzer at an excitation wavelength of 380 nm and an emission wavelength of 460 nm, respectively. The inhibition rate was calculated from the measured fluorescence intensity of each well with comparing to that of the control well. IC50 of the compound was calculated by analyzing the dose-reaction inhibition curve.
The HDAC 8 inhibitory activity was presented as percentage of relative activity by the inhibitory activity of SAHA (Vorinostat) used as a reference compound.

Usually GI50 stands for the concentration giving 50% growth inhibition. For `C=CCSS/C=C\C[S+]([O-])Cc1ccccc1` (stereo not shown) [Comparative Example 4, (Z)-1-allyl-2-(3-(benzylsulfinyl)prop-1-enyl)disulfane, reference compound], the GI50 in assay [1] was determined as 5.32 µM; in assay [2], 3.28 µM; in assay [3] it was 5.98 µM; in assay [4], 5.93 µM; in assay [5], 8.07 µM.

Take `[O-][S+](C/C=C\SSCc1ccc(Cl)c(Cl)c1)c1ccccc1` (stereo not shown) [Example 14, (Z)-1-(3,4-dichlorobenzyl)-2-(3-(phenylsulfinyl)prop-1-enyl)disulfane]: the GI50 in assay [1] is 7.68 µM; in assay [2], 4.55 µM; in assay [6], 4.78 µM; in assay [3], 7.35 µM; in assay [4], above 10 µM; in assay [5], 8.51 µM. Further, the “Inhibitory activity (%) HDAC 8” value at HDAC 8 was determined as 146.4%.

For the molecule `C=CC[S+]([O-])C/C=C\SSCc1ccccc1` (stereo not shown) [Comparative Example 3, (Z)-1-(3-(allylsulfinyl)prop-1-enyl)-2-benzyldisulfane, reference compound], the GI50 amounted to 3.26 µM in assay [1]; 2.31 µM in assay [2]; 4.64 µM in assay [6]; 3.59 µM in assay [3]; 4.96 µM in assay [4]; 2.05 µM in assay [5].

On to `C=CCSS/C=C/C[S+]([O-])Cc1ccccc1` (stereo not shown) [Comparative Example 5, (E)-1-allyl-2-(3-(benzylsulfinyl)prop-1-enyl)disulfane, reference compound], for which the concentration for 50% growth inhibition (GI50) in assay [1] amounted to 4.43 µM; in assay [2], 6.85 µM; in assay [6] it was 5.45 µM; in assay [3], 4.41 µM; in assay [4] it was 9.1 µM; in assay [5], 10.3 µM.

For `[O-][S+](C/C=C\SSCc1ccc(Cl)cc1)c1ccccc1` (stereo not shown) [Example 12, (Z)-1-(4-chlorobenzyl)-2-(3-(phenylsulfinyl)prop-1-enyl)disulfane], the GI50 came to 2.95 µM in assay [1]; 4.99 µM in assay [2]; 2.26 µM in assay [6]; 3.51 µM in assay [3]; 5.48 µM in assay [4]; 3.24 µM in assay [5]. For the same molecule, at HDAC 8, the “Inhibitory activity (%) HDAC 8” value was 105.4%.

Regarding `COc1ccc([S+]([O-])C/C=C/SSCc2ccccc2)cc1` (stereo not shown) [Example 31, (E)-1-benzyl-2-(3-(4-methoxyphenylsulfinyl)prop-1-enyl)disulfane], on HDAC 8, the “Inhibitory activity (%) HDAC 8” value was 74.6%.

On to `CCCSS/C=C\C[S+]([O-])c1ccccc1` (stereo not shown) [Example 4, (Z)-1-(3-(phenylsulfinyl)prop-1-enyl)-2-propyldisulfane], for which, at HDAC 8, the “Inhibitory activity (%) HDAC 8” value is 115.2%.

As for `COc1cccc([S+]([O-])C/C=C\SSCc2ccc(F)cc2)c1` (stereo not shown) [Example 22, (Z)-1-(4-fluorobenzyl)-2-(3-(3-methoxyphenylsulfinyl)prop-1-enyl)disulfane], the GI50 in assay [1] was 3.85 µM; in assay [2], 3.04 µM; in assay [6] it was 4.41 µM; in assay [3], 2.71 µM; in assay [4], 3.01 µM; in assay [5] it was 3.67 µM. In addition, the “Inhibitory activity (%) HDAC 8” value on HDAC 8 was 122.9%.

For the molecule `[O-][S+](C/C=C/SSCc1ccc(F)cc1)c1ccccc1` (stereo not shown) [Example 7, (E)-1-(4-fluorobenzyl)-2-(3-(phenylsulfinyl)prop-1-enyl)disulfane], the 50% growth inhibitory concentration (GI50) came to 7.11 µM in assay [1]; 3.89 µM in assay [2]; 3.24 µM in assay [6]; 7.69 µM in assay [3]; 10.4 µM in assay [4]; 6.84 µM in assay [5]. For the same molecule, the “Inhibitory activity (%) HDAC 8” value on HDAC 8 is reported as 37.1%.

Turning to `CCCSS/C=C/C[S+]([O-])c1ccccc1` (stereo not shown) [Example 3, (E)-1-(3-(phenylsulfinyl)prop-1-enyl)-2-propyldisulfane], the GI50 came out at 3.9 µM in assay [1]; 4.74 µM in assay [2]; 2.15 µM in assay [6]; 2.8 µM in assay [3]; 2.64 µM in assay [4]; 2.93 µM in assay [5]. At HDAC 8, the “Inhibitory activity (%) HDAC 8” value was determined as 43.8%.

On to `CCCSS/C=C/C[S+]([O-])c1ccc(OC)cc1` (stereo not shown) [Example 29, (E)-1-(3-(4-methoxyphenylsulfinyl)prop-1-enyl)-2-propyldisulfane], for which the 50% growth inhibitory concentration (GI50) was 1.65 µM in assay [1]; 2.41 µM in assay [2]; 2.2 µM in assay [6]; 1.41 µM in assay [3]; 1.48 µM in assay [4]; 2.04 µM in assay [5]. The “Inhibitory activity (%) HDAC 8” value at HDAC 8 worked out at 69.9%.

With `[O-][S+](C/C=C/SSCc1ccc(F)cc1)Cc1ccccc1` (stereo not shown) [Comparative Example 8, (E)-1-(3-(benzylsulfinyl)prop-1-enyl)-2-(4-fluorobenzyl)disulfane, reference compound], the GI50 in assay [1] was 4.1 µM; in assay [2] it was 2.04 µM; in assay [3], 2.83 µM; in assay [4], 2.27 µM.

Turning to `C=CCSS/C=C\C[S+]([O-])c1cccc(OC)c1` (stereo not shown) [Example 16, (Z)-1-allyl-2-(3-(3-methoxyphenylsulfinyl)prop-1-enyl)disulfane], the “Inhibitory activity (%) HDAC 8” value at HDAC 8 is listed as 105.3%.

On to `COc1cccc([S+]([O-])C/C=C/SSCc2ccc(Cl)c(Cl)c2)c1` (stereo not shown) [Example 25, (E)-1-(3,4-dichlorobenzyl)-2-(3-(3-methoxyphenylsulfinyl)prop-1-enyl)disulfane], for which the “Inhibitory activity (%) HDAC 8” value at HDAC 8 was 138.9%.

With `[O-][S+](C/C=C\SSCc1ccc(F)cc1)Cc1ccccc1` (stereo not shown) [Comparative Example 9, (Z)-1-(3-(benzylsulfinyl)prop-1-enyl)-2-(4-fluorobenzyl)disulfane, reference compound], the GI50 in assay [1] turned out to be 2.32 µM; in assay [6], 3.24 µM.

Turning to `C=CCSS/C=C/C[S+]([O-])c1ccccc1` (stereo not shown) [Example 1, (E)-1-allyl-2-(3-(phenylsulfinyl)prop-1-enyl)disulfane], the “Inhibitory activity (%) HDAC 8” value at HDAC 8 was found to be 32.1%.

Consider `C=CCSS/C=C\C[S+]([O-])c1ccccc1` (stereo not shown) [Example 2, (Z)-1-allyl-2-(3-(phenylsulfinyl)prop-1-enyl)disulfane], for which the “Inhibitory activity (%) HDAC 8” value on HDAC 8 amounted to 37.5%.

In the case of `[O-][S+](C/C=C\SSCc1ccc(F)cc1)c1ccccc1` (stereo not shown) [Example 8, (Z)-1-(4-fluorobenzyl)-2-(3-(phenylsulfinyl)prop-1-enyl)disulfane], the “Inhibitory activity (%) HDAC 8” value on HDAC 8 came out at 24.9%.

Regarding `CCCSS/C=C/C[S+]([O-])Cc1ccccc1` (stereo not shown) [Comparative Example 6, (E)-1-(3-(benzylsulfinyl)prop-1-enyl)-2-propyldisulfane, reference compound], the 50% growth inhibitory concentration (GI50) came out at 2.19 µM in assay [6], 2.93 µM in assay [3], 3.03 µM in assay [4] and 3.27 µM in assay [5].

On to `[O-][S+](C/C=C/SSCc1ccccc1)Cc1ccccc1` (stereo not shown) [Comparative Example 7, (E)-1-benzyl-2-(3-(benzylsulfinyl)prop-1-enyl)disulfane, reference compound], for which the GI50 in assay [1] was determined as 4.22 µM; in assay [2], 3.88 µM; in assay [3] it was 6.41 µM.
